Test results taken from patent US20250042879A1, “HETEROCYCLIC SUBSTITUTED 1,3,4-THIADIAZOLE AND PYRIDAZINE COMPOUNDS AND METHODS OF USING THE SAME” (Rgenta Therapeutics, Inc., priority 2021, published 2025).
Where a name gives a salt, the structure may show the parent alone.

The compounds below were run on HTT (assay: Mini-gene reporter assay-HTT (firefly luciferase, exon inclusion)). Details: HTT Minigene, 5 μM; read-out: % Efficacy at 5 μM.
Type: cell-based
Text: Mini-gene reporter constructs for each target site were constructed by first PCR amplifying the region-of-interest including the sequence of the alternatively skipped, sequences of the immediate upstream and downstream introns, and sequences of the immediate upstream and downstream exons. Then the 3′end of the amplified sequence was ligated to a firefly luciferase reporter gene and cloned into the pcDNA3.1 vector backbone. The final reporter construct was transiently transfected into HEK293 cells using Lipofectamine 3000 transfection reagents. Compounds that can induce the inclusion of the skipped exon in the reporter construct would increase the reporter firefly luciferase activity.
Test compounds were diluted in duplicates and dispensed into an assay plate. Transient mini-gene reporter cell line stock was resuspended and dispensed into the assay plate. Assay plates were then centrifuged and incubated. A luciferase reagent (e.g. ONE-Glo firefly luciferase reagent from Promega®) was added to the assay plate and the luminescence (RLU) signals recorded. EC50 values were determined by curve fitting in Levenberg-Marquardt algorithm.

Compound	Emax at 5 µM
Cc1cn2cc(-c3ccc(-c4ccc(C5CN(C6CCSC6)C5)nn4)c(O)c3)cc(F)c2n1 (centres unmarked) [Compound 70]	25 to 75%
Cc1cn2cc(-c3ccc(-c4ccc(C5CN(Cc6cnn(C)c6)C5)nn4)c(O)c3)cc(F)c2n1 [Compound 71]	> 750%
Cc1cn2cc(-c3ccc(-c4ccc(C5CN(Cc6cc[nH]n6)C5)nn4)c(O)c3)cc(F)c2n1 [Compound 72]	> 750%
Cc1cn2cc(-c3ccc(-c4ccc(C5CN(Cc6c[nH]nc6C)C5)nn4)c(O)c3)cc(F)c2n1 [Compound 73]	> 750%
Cc1cn2cc(-c3ccc(-c4ccc(C5CN(Cc6c(C)n[nH]c6C)C5)nn4)c(O)c3)cc(F)c2n1 [Compound 74]	25 to 75%
Cc1cn2cc(-c3ccc(-c4ccc(C5CN(C6CCN(C)CC6)C5)nn4)c(O)c3)cc(F)c2n1 [Compound 75]	25 to 75%
COCCC(C)N1CC(c2ccc(-c3ccc(-c4cc(F)c5nc(C)cn5c4)cc3O)nn2)C1 (centres unmarked) [Compound 76]	> 750%
CCn1cc(CN2CC(c3ccc(-c4ccc(-c5cc(F)c6nc(C)cn6c5)cc4O)nn3)C2)cn1 [Compound 77]	> 750%
Cc1cn2cc(-c3ccc(-c4ccc(C5CN(Cc6ccn(C)n6)C5)nn4)c(O)c3)cc(F)c2n1 [Compound 80]	25 to 75%
Cc1cn2cc(-c3ccc(-c4ccc(C5CN(Cc6cn(C)nc6C)C5)nn4)c(O)c3)cc(F)c2n1 [Compound 81]	25 to 75%
Cc1cn2cc(-c3ccc(-c4ccc(C5CN(Cc6cncnc6)C5)nn4)c(O)c3)cc(F)c2n1 [Compound 82]	25 to 75%
COCC(C)N1CC(c2ccc(-c3ccc(-c4cc(F)c5nc(C)cn5c4)cc3O)nn2)C1 (centres unmarked) [Compound 84]	> 750%
Cc1cn2cc(-c3ccc(-c4ccc(C5CN(C6CCOCC6C)C5)nn4)c(O)c3)cc(F)c2n1 (centres unmarked) [Compound 85]	> 750%
Cc1cn2cc(-c3ccc(-c4ccc(C5CN(CC6CCCOC6)C5)nn4)c(O)c3)cc(F)c2n1 (centres unmarked) [Compound 88]	25 to 75%
Cc1cn2cc(-c3ccc(-c4ccc(C5CN(C6CCOC6)C5)nn4)c(O)c3)cc(F)c2n1 (centres unmarked) [Compound 89]	> 750%
Cc1cn2cc(-c3ccc(-c4ccc(C5CN(Cc6cnco6)C5)nn4)c(O)c3)cc(F)c2n1 [Compound 90]	25 to 75%
CCCn1cc(CN2CC(c3ccc(-c4ccc(-c5cc(F)c6nc(C)cn6c5)cc4O)nn3)C2)cn1 [Compound 91]	25 to 75%
CCC(COC)N1CC(c2ccc(-c3ccc(-c4cc(F)c5nc(C)cn5c4)cc3O)nn2)C1 (centres unmarked) [Compound 92]	> 750%
Cc1cn2cc(-c3ccc(-c4ccc(C5CN(Cc6ccn(C)c6)C5)nn4)c(O)c3)cc(F)c2n1 [Compound 94]	25 to 75%
Cc1cn2cc(-c3ccc(-c4ccc(C5CN(C(C)C6CCCO6)C5)nn4)c(O)c3)cc(F)c2n1 (centres unmarked) [Compound 95]	> 750%
Cc1cn2cc(-c3ccc(-c4ccc(C5CN(Cc6cc(C)n(C)n6)C5)nn4)c(O)c3)cc(F)c2n1 [Compound 96]	< 25%
Cc1cn2cc(-c3ccc(-c4ccc(C5CN(C6COCCOC6)C5)nn4)c(O)c3)cc(F)c2n1 [Compound 97]	25 to 75%
Cc1cn2cc(-c3ccc(-c4ccc(C5CN(Cc6cc[nH]c6)C5)nn4)c(O)c3)cc(F)c2n1 [Compound 98]	> 750%
Cc1cn2cc(-c3ccc(-c4ccc(C5CN(C6CCCOCC6)C5)nn4)c(O)c3)cc(F)c2n1 (centres unmarked) [Compound 99]	> 750%
Cc1cn2cc(-c3ccc(-c4ccc(C5CN(Cc6cn(C)cn6)C5)nn4)c(O)c3)cc(F)c2n1 [Compound 100]	25 to 75%
Cc1cn2cc(-c3ccc(-c4ccc(C5CN(Cc6cocn6)C5)nn4)c(O)c3)cc(F)c2n1 [Compound 101]	25 to 75%
Cc1cn2cc(-c3ccc(-c4ccc(C5CN(Cc6cnn(CCF)c6)C5)nn4)c(O)c3)cc(F)c2n1 [Compound 102]	> 750%

Same assay, conditions: Homo sapiens; HTT mini-gene firefly luciferase reporter transiently transfected into HEK293 cells

EC50	Compound
500 to 1000 nM	CCN1CC(c2ccc(-c3ccc(-c4ccc5nccn5n4)cc3O)nn2)C1 [Compound 47, 2-[6-(1-ethylazetidin-3-yl)pyridazin-3-yl]-5-{imidazo[1,2-b]pyridazin-6-yl}phenol]
50 to 500 nM	CCN1CC(c2ccc(-c3ccc(-c4cc(OC)c5nn(C)cc5c4)cc3O)nn2)C1 [Compound 48, 2-[6-(1-ethylazetidin-3-yl)pyridazin-3-yl]-5-(7-methoxy-2-methyl-2H-indazol-5-yl)phenol]
500 to 1000 nM	COc1cc(-c2ccc(-c3ccc(C4CN(C5CCOCC5)C4)nn3)c(O)c2)cc2cn(C)nc12 [Compound 49, 5-(7-methoxy-2-methyl-2H-indazol-5-yl)-2-{6-[1-(oxan-4-yl)azetidin-3-yl]pyridazin-3-yl}phenol]
50 to 500 nM	CCN1CC(c2ccc(-c3ccc(-c4ccc5nn(C)cc5n4)cc3O)nn2)C1 [Compound 50, 2-[6-(1-ethylazetidin-3-yl)pyridazin-3-yl]-5-{2-methyl-2H-pyrazolo[4,3-b]pyridin-5-yl}phenol]
500 to 1000 nM	Cn1cc2nc(-c3ccc(-c4ccc(C5CN(C6CCOCC6)C5)nn4)c(O)c3)ccc2n1 [Compound 51, 5-{2-methyl-2H-pyrazolo[4,3-b]pyridin-5-yl}-2-{6-[1-(oxan-4-yl)azetidin-3-yl]pyridazin-3-yl}phenol]
50 to 500 nM	CCN1CC(c2ccc(-c3ccc(-c4cc5cn(C)nc5c(OC)n4)cc3O)nn2)C1 [Compound 52, 2-[6-(1-ethylazetidin-3-yl)pyridazin-3-yl]-5-{7-methoxy-2-methyl-2H-pyrazolo[3,4-c]pyridin-5-yl}phenol]
500 to 1000 nM	CCN1CC(c2ccc(-c3ccc(-c4cc5cn(C)nc5c(O)n4)cc3O)nn2)C1 [Compound 53, 5-{4-[6-(1-ethylazetidin-3-yl)pyridazin-3-yl]-3-hydroxyphenyl}-2-methyl-2H-pyrazolo[3,4-c]pyridin-7-ol]
≥ 1000 nM	CCOc1cc(-c2ccc(-c3ccc(C4CN(C5CCOCC5)C4)nn3)c(O)c2)cc2cn(C)nc12 [Compound 54, 5-(7-ethoxy-2-methyl-2H-indazol-5-yl)-2-{6-[1-(oxan-4-yl)azetidin-3-yl]pyridazin-3-yl}phenol]
≥ 1000 nM	CCOc1cc(-c2ccc(-c3ccc(C4CN(C)C4)nn3)c(O)c2)cc2cn(C)nc12 [Compound 55, 5-(7-ethoxy-2-methyl-2H-indazol-5-yl)-2-[6-(1-methylazetidin-3-yl)pyridazin-3-yl]phenol]
500 to 1000 nM	CCOc1cc(-c2ccc(-c3ccc(C4CN(CC)C4)nn3)c(O)c2)cc2cn(C)nc12 [Compound 56, 5-(7-ethoxy-2-methyl-2H-indazol-5-yl)-2-[6-(1-ethylazetidin-3-yl)pyridazin-3-yl]phenol]
50 to 500 nM	COc1nc(-c2ccc(-c3ccc(C4CN(C(C)C)C4)nn3)c(O)c2)cc2cn(C)nc12 [Compound 57, 5-{7-methoxy-2-methyl-2H-pyrazolo[3,4-c]pyridin-5-yl}-2-{6-[1-(propan-2-yl)azetidin-3-yl]pyridazin-3-yl}phenol]
50 to 500 nM	COc1nc(-c2ccc(-c3ccc(C4CN(C5CCOCC5)C4)nn3)c(O)c2)cc2cn(C)nc12 [Compound 58, 5-{7-methoxy-2-methyl-2H-pyrazolo[3,4-c]pyridin-5-yl}-2-{6-[1-(oxan-4-yl)azetidin-3-yl]pyridazin-3-yl}phenol]
≥ 1000 nM	CCc1cc(-c2ccc(-c3ccc(C4CN(C5CCOCC5)C4)nn3)c(O)c2)nc2cn(C)nc12 [Compound 59, 5-{7-ethyl-2-methyl-2H-pyrazolo[4,3-b]pyridin-5-yl}-2-{6-[1-(oxan-4-yl)azetidin-3-yl]pyridazin-3-yl}phenol]
≥ 1000 nM	CCc1cc(-c2ccc(-c3ccc(C4CN(CC)C4)nn3)c(O)c2)nc2cn(C)nc12 [Compound 60, 5-{7-ethyl-2-methyl-2H-pyrazolo[4,3-b]pyridin-5-yl}-2-[6-(1-ethylazetidin-3-yl)pyridazin-3-yl]phenol]
≥ 1000 nM	Cc1cc(-c2ccc(-c3ccc(C4CN(C5CCOCC5)C4)nn3)c(O)c2)nc2cn(C)nc12 [Compound 61, 5-{2,7-dimethyl-2H-pyrazolo[4,3-b]pyridin-5-yl}-2-{6-[1-(oxan-4-yl)azetidin-3-yl]pyridazin-3-yl}phenol]
500 to 1000 nM	CCN1CC(c2ccc(-c3ccc(-c4cc(C)c5nn(C)cc5n4)cc3O)nn2)C1 [Compound 62, 5-{2,7-dimethyl-2H-pyrazolo[4,3-b]pyridin-5-yl}-2-[6-(1-ethylazetidin-3-yl)pyridazin-3-yl]phenol]
500 to 1000 nM	Cc1cn2nc(-c3ccc(-c4ccc(C5CN(C6CCOCC6)C5)nn4)c(O)c3)ccc2n1 [Compound 63, 5-(2-methylimidazo[1,2-b]pyridazin-6-yl)-2-(6-(1-(tetrahydro-2H-pyran-4-yl)azetidin-3-yl)pyridazin-3-yl)phenol hydrochloride]
500 to 1000 nM	Cc1cn2nc(-c3ccc(-c4ccc(C5CN(C6CCOCC6)C5)nn4)c(O)c3)cc(C)c2n1 [Compound 64, 5-(2,8-dimethylimidazo[1,2-b]pyridazin-6-yl)-2-(6-(1-(tetrahydro-2H-pyran-4-yl)azetidin-3-yl)pyridazin-3-yl)phenol hydrochloride]
≥ 1000 nM	COc1cc(-c2ccc(-c3ccc(C4CN(C5CCOCC5)C4)nn3)c(O)c2)nc2cn(C)nc12 [Compound 65, 5-(7-methoxy-2-methyl-2H-pyrazolo[4,3-b]pyridin-5-yl)-2-(6-(1-(tetrahydro-2H-pyran-4-yl)azetidin-3-yl)pyridazin-3-yl)phenol hydrochloride]
≥ 1000 nM	CCN1CC(c2ccc(-c3ccc(-c4cc(OC)c5nn(C)cc5n4)cc3O)nn2)C1 [Compound 66, 2-(6-(1-ethylazetidin-3-yl)pyridazin-3-yl)-5-(7-methoxy-2-methyl-2H-pyrazolo[4,3-b]pyridin-5-yl)phenol hydrochloride]
